In patent publication US20260306502A1, “MITOCHONDRIAL UNCOUPLERS FOR TREATMENT OF METABOLIC DISEASES AND CANCER” (Mito Biopharma, LLC, priority 2022, published 2026):
Entries after “also recorded” stand apart in the source; their conditions may differ.

How the values were obtained:
C2C12 cells = test: Mitochondrial uncoupling activity by oxygen consumption rate (OCR) assay, Seahorse, in presence of oligomycin; assay type: cell-based, mouse; settings: for minimal effective concentration: Mus musculus, C2C12, in the presence of oligomycin 2.5 μM, read-out: COCR-min: minimal concentration increasing OCR in the presence of oligomycin; for effect on oxygen consumption rate (OCR): in words
Method in brief: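 Mouse C2C12 myoblasts grown in 10% FBS medium had OCR measured on Seahorse XF96/XF24 sequentially: basal, after 2.5 μM oligomycin (final), then after compound at varying concentrations. Rotenone/antimycin A confirmed mitochondrial origin. COCR-min is the minimal compound concentration inducing OCR in the presence of oligomycin.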

[1] = system: cultured mammalian cells, the NIH-3T3 cells, C2C12 cells, and other mammalian cell lines; test: Mitochondrial membrane potential (MMP) assay, TMRE (or DilC1(5)) staining, related to OCR induction; assay type: cell-based; settings: in words; TMRE and DilC1(5) staining
Description: Mitochondrial membrane potential assay was performed using the standard TMRE (tetramethylrhodamine ethyl ester) staining method with cultured mammalian cells, the NIH-3T3 cells, C2C12 cells, and other mammalian cell lines. Cells were seeded in 6-well plates and cultured in DMEM medium supplemented with 10% fetal bovine serum and 2 mM glutamine. Cells were allowed to grow to the logarithmic growth phase prior to experiments. The cells were treated with each individual compound at various concentrations for two hours, followed by staining with TMRE at a final concentration of 100 nM for 15 minutes. The cells were then washed once with PBS, and examined under fluorescence microscopy. Cells treated with various concentrations of niclosamide ethanolamine were used as a positive control.
In some examples, mitochondrial membrane potential was measured with DilC1(5) staining. Briefly, DilC1(5) was added to the cells to 50 nM final concentration and the cells were incubated at 37° C., 5% CO2, for 15 to 30 minutes. Cells were washed once by adding 2 mL of warm phosphate-buffered saline (PBS). Mitochondrial staining was determined by fluorescence microscopy with 633 nm excitation using standard filters for far-red emission.
Using the ratio between C10% TMRE (the concentration at which 10% MMP remains, i.e. 90% MMP is lost) and Cmin-OCR (the concentration at which minimal OCR induction is observed), we categorized the MMP-retaining uncouplers into two groups.

[2] = PO pharmacokinetic study, oral exposure (Example B3); assay type: in vivo; settings: for AUC at 24 h: blood, po, 10 mg/kg gavage; for oral absorption, systemic exposure: in words
Description: The blood concentration of the compound was then determined at 0 (pre-dosing), 5 min, 15 min, 30 min, 1 hr, 2 hr, 4 hr, 8 hr, 24 hr time points by LC-MS/MS analysis (See Tables 1 and 2, vide supra).

[3] = system: high-fat diet (HFD)-induced diabetic mouse model; test: Efficacy in high-fat diet (HFD)-induced diabetic/fatty liver mouse model; assay type: in vivo; settings: HFD mice, 3 weeks; for reversing fatty liver (liver steatosis, H&E histology): 5 mg/kg PO daily
Description: (§1) For HFD induced diabetic mouse model, C57Bl6 mice (male, n=6) were induced to obese and diabetic conditions by feeding high-fat diet (HFD, 60% fat calories, Research Diet, Inc. New Brunswick, NJ) for 3-4 months. […] During the 3-week period, the mice continued feeding HFD. […] The blood glucose levels were measured after an overnight fast, plasma insulin levels were tested after 5-6 hours fast, and the glycated HbA1c levels were determined in whole blood samples.
FIG. 15C and FIG. 15D show liver sections from mice fed HFD following 3 weeks of treatment with Compounds 25 and 64, respectively (P.O. dosing of 5 mg/kg, by daily gavage).
(§2) Experiments were similarly performed with other compounds, in either high-fat diet induced diabetes and fatty liver models, or in db/db mouse model, or in both, by daily oral gavage administration with low dosages.

[4] = system: HFD-induced diabetic mouse model and db/db mouse model; test: Efficacy in HFD-induced diabetic and db/db mouse models; assay type: in vivo; settings: for reducing blood glucose, blood insulin, and glycated HbA1c: 5 mg/kg once daily PO, db/db and HFD mice; for minimal effective dose: Mus musculus, both HFD and db/db models, oral daily gavage, read-out: Efficacious dosage to reduce blood glucose in mouse models, oral daily gavage
Description: as §1, §2

C57Bl6 mice = test: Determination of acute toxicity; settings: in words
Description: Acute toxicity tests were performed on C57Bl6 mice, male, 6 weeks old, n=6. […] The tests were performed under fed condition, by oral gavage of 100-400 μL compound suspension according to the body weight to desired dosages (mg/kg). The mice were supplied with drinking water all through the testing time. […] MED was determined in diabetic and steatosis mouse models (Table 9).
Acute toxicity tests were performed on C57Bl6 mice, male, 6 weeks old, n=6 for each dose. […] The tests were performed under fed condition, by oral gavage of 100-400 μL compound suspension according to the body weight to desired dosages (mg/kg). The mice were supplied with drinking water all through the testing time. Mouse behaviors were monitored every 15-30 minutes.

[5] = Short-term (10-day) escalating toxicology study in CD-1 mice; assay type: in vivo, mouse; settings: mouse, in vivo; oral gavage once daily, 10 days, male CD-1 mice; read-out: NOAEL (no-observable-adverse-effect-level)
Description: (§3) Clinical signs, body weights, food consumptions, rectal temperature, hematology, serum chemistry, plasma exposure, necropsies, tissue histopathology, were examined.
(§4) The compound was administered as a homogeneous suspension in 0.5% CMC+1% Tween80 in water in a volume of 10 mL/kg for oral administration. There were two arms in the study: 5 mice in the toxicology group and 5 mice in the toxicokinetic (TK) satellite group. Clinical signs were recorded twice daily. Body weight and food consumption were recorded once daily. Rectal temperature was recorded once every two days for a total of 5 times throughout the study. Necropsies were conducted at the termination of the study. Hematology, serum chemistry, plasma exposure, and tissue distribution were evaluated post 10th dosing in the TK satellite animals. Histopathology was examined in selected organs/tissues. Based on the outcomes of the toxicology parameters, NOAEL (no-observable-adverse-effect-level) and MTD (maximal tolerable dose) were determined.

CD-1 mice = test: as above; assay type: in vivo, mouse; settings: in words
Description: as §3, §4

Row | SMILES | minimal effective concentration (C2C12 cells) [µM] | effect on oxygen consumption rate (OCR) (C2C12 cells) | effect on mitochondrial membrane potential (MMP) [1] | AUC at 24 h [2] [ng·h/mL] | oral absorption, systemic exposure [2] | reversing fatty liver (liver steatosis, H&E histology) [3] | reducing blood triglyceride levels and non-HDL cholesterol levels ([3]; 5 mg/kg/day gavage) | reducing blood glucose, blood insulin, and glycated HbA1c [4] | minimal effective dose [4] [mg/kg] | acute toxicity profile over DNP (C57Bl6 mice) | NOAEL at 240 h [5] [mg/kg/day] | short-term safety profile over DNP (CD-1 mice)
1 | COCCN(CCOC)Cc1cc(Cl)cc(C(=O)Nc2nc3ccc(C(F)(F)F)cc3s2)c1O [Compound 25, 3-((bis(2-methoxyethyl)amino)methyl)-5-chloro-2-hydroxy-N-(6-(trifluoromethyl)benzo[d]thiazol-2-yl)benzamide] | < 5 | very robust OCR induction at 3.0, 6.0, and 9.0 μM; also recorded: effectively uncouples mitochondria (induces OCR | does not cause observable MMP reduction; also recorded: does not appear to reduce MMP over a wide concentration range; also recorded: without reducing MMP | 10000 to 30000 | excellent | highly efficacious in reversing fatty liver | efficacious | highly efficacious | 2.5 | drastically improved acute toxicity profiles over DNP | 50 | drastically improved short-term safety profiles
2 | COCCOCc1cc(C(F)(F)F)cc2sc(NC(=O)c3cc(Cl)cc(CN4C[C@@H](C)O[C@@H](C)C4)c3O)nc12 [Compound 64, 5-chloro-3-((cis-2,6-dimethylmorpholino)methyl)-2-hydroxy-N-(4-((2-methoxyethoxy)methyl)-6-(trifluoromethyl)benzo[d]thiazol-2-yl)benzamide] | < 5 | increases OCR | minor loss of MMP; also recorded: without significantly decreasing MMP over a wide concentration range; also recorded: without drastically dissipating mitochondrial membrane potential | 10000 to 30000 | excellent | highly efficacious in reversing fatty liver | – | highly efficacious | 1 to 2.5 | drastically improved acute toxicity profiles over DNP | 40 | drastically improved short-term safety profiles
